Reference: ChEMBL document CHEMBL4261580, “Novel antitumor compound optimized from natural saponin Albiziabioside A induced caspase-dependent apoptosis and ferroptosis as a p53 activator through the mitochondrial pathway” (Eur J Med Chem, 2018)
Calls of active or inactive are those of the source. No cut-off for these calls is given here.

Legend:
HepG2 = test: Antiproliferative activity against human HepG2 cells after 72 hrs by MTT assay; format: functional, cell-based; conditions: HepG2, 72 h
HCT-116 [1] = test: Induction of apoptosis in human HCT116 cells assessed as viable cells at 0.31 uM after 72 hrs by Annexin V-FITC/propidium iodide staining-based flow cytometric analysis (reference value: 92.86%); format: functional; conditions: HCT-116, 72 h, read-out: Activity
[2] = Antiproliferative activity against taxol-resistant human HCT8/T cells after 72 hrs by MTT assay; format: functional; conditions: HCT-8, 72 h
HCT-116 [3] = test: Disruption of mitochondrial membrane potential in human HCT116 cells assessed as collapse of mitochondrial membrane potential at 0.31 uM after 72 hrs by JC1 staining-based flow cytometry method (reference value: […]); format: functional
HCT-116 [4] = test: Antitumor activity against human HCT116 cells xenografted in BALB/c nude mouse assessed as decrease in tumor size at 20 mg/kg, iv administered once per day for 14 days and measured every 2 days; format: functional; design: scale not given: the % may be the effect or the level left
HCT-116 [5] = test: Induction of ferroptosis in human HCT116 cells assessed as downregulation of GPX4 expression after 48 hrs by Western blot analysis; format: functional, cell-based
HCT-116 [6] = test: Disruption of mitochondrial membrane potential in human HCT116 cells assessed as collapse of mitochondrial membrane potential at 1.25 uM after 72 hrs by JC1 staining-based flow cytometry method (reference value: […]); format: functional
HCT-116 [7] = test: Effect on caspase-8 expression in human HCT116 cells up to 5 uM after 48 hrs by Western blot analysis; format: functional, cell-based
HCT-116 [8] = test: Cytotoxicity in human HCT116 cells pretreated with Fe2+ followed by compound addition up to 5 uM measured after 72 hrs by MTT assay; format: functional, cell-based
HCT-116 [9] = test: Disruption of mitochondrial membrane potential in human HCT116 cells assessed as intact mitochondrial membrane at 0.31 uM after 72 hrs by JC1 staining-based flow cytometry method (reference value: 0.33%); format: functional
[10] = biological target: Cellular tumor antigen p53 (Homo sapiens) (UniProt P04637); test: Activation of p53 in human HCT116 cells assessed as increase in caspase-9 level up to 5 uM after 48 hrs by Western blot analysis; format: cell-based
Cellular tumor antigen p53 (Homo sapiens), sequence (P04637 whole entry, looked up): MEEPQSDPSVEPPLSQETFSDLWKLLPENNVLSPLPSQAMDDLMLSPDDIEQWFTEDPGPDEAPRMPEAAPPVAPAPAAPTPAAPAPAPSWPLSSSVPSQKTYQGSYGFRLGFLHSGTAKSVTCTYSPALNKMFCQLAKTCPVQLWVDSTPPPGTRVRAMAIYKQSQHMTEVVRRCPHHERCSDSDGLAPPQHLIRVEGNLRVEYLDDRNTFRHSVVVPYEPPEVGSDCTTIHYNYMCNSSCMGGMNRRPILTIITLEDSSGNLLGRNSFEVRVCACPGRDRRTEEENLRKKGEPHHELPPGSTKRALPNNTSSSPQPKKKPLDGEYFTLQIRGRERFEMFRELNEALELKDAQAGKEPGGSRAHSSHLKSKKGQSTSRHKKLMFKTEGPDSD

HCT-116 [11] = test: Induction of apoptosis in human HCT116 cells assessed as viable cells at 1.25 uM after 72 hrs by Annexin V-FITC/propidium iodide staining-based flow cytometric analysis (reference value: 92.86%); format: functional; conditions: HCT-116, 72 h, read-out: Activity
HCT-116 [12] = test: Induction of apoptosis in human HCT116 cells after 72 hrs by Annexin V-FITC/propidium iodide staining-based flow cytometric analysis; format: functional, cell-based
HCT-116 [13] = test: Induction of intracellular ROS generation in human HCT116 cells after 72 hrs by DCF-DA-dye based fluorescence microscopy; format: functional, cell-based
HCT-116 [14] = test: Induction of apoptosis in human HCT116 cells assessed as late apoptotic cells at 5 uM after 72 hrs by Annexin V-FITC/propidium iodide staining-based flow cytometric analysis (reference value: 1.08%); format: functional
HCT-116 [15] = test: Induction of apoptosis in human HCT116 cells assessed as early apoptotic cells at 0.31 uM after 72 hrs by Annexin V-FITC/propidium iodide staining-based flow cytometric analysis (reference value: 5.30%); format: functional
HCT-116 [16] = test: Induction of apoptosis in human HCT116 cells assessed as necrotic cells at 1.25 uM after 72 hrs by Annexin V-FITC/propidium iodide staining-based flow cytometric analysis (reference value: 0.76%); format: functional
Mus musculus [17] = test: Toxicity in BALB/c nude mouse xenografted with human HCT116 cells assessed as abnormality in lung at 10 to 20 mg/kg, iv administered once per day by hematoxylin and eosin staining-based microscopic method; format: organism-based; conditions: in vivo
MGC-803 = test: Antiproliferative activity against human MGC803 cells after 72 hrs by MTT assay; format: functional, cell-based; conditions: MGC-803, 72 h
Mus musculus [18] = test: Toxicity in BALB/c nude mouse xenografted with human HCT116 cells assessed as abnormality in heart at 10 to 20 mg/kg, iv administered once per day by hematoxylin and eosin staining-based microscopic method; format: organism-based; conditions: in vivo
HCT-116 [19] = test: Cytotoxicity against human HCT116 cells pretreated with ferrostatin-1 followed by compound addition up to 5 uM measured after 72 hrs by MTT assay; format: functional, cell-based
PC-3 = test: Antiproliferative activity against p53 deficient human PC3 cells at 0.31 to 5 uM after 72 hrs by MTT assay; format: functional, cell-based
Mus musculus [20] = test: Toxicity in BALB/c nude mouse xenografted with human HCT116 cells assessed as abnormality in liver at 10 to 20 mg/kg, iv administered once per day by hematoxylin and eosin staining-based microscopic method; format: organism-based; conditions: in vivo
HCT-116 [21] = test: Cytotoxicity against human HCT116 cells pretreated with Mg2+ followed by compound addition up to 5 uM measured after 72 hrs by MTT assay; format: functional, cell-based
HCT-116 [22] = test: Disruption of mitochondrial membrane potential in human HCT116 cells assessed as intact mitochondrial membrane at 1.25 uM after 72 hrs by JC1 staining-based flow cytometry method (reference value: 0.33%); format: functional
HCT-116 [23] = test: Induction of apoptosis in human HCT116 cells assessed as late apoptotic cells at 1.25 uM after 72 hrs by Annexin V-FITC/propidium iodide staining-based flow cytometric analysis (reference value: 1.08%); format: functional
HCT-116 [24] = test: Induction of intracellular ROS generation in human HCT116 cells at 5 uM after 72 hrs by DCF-DA-dye based fluorescence microscopy (reference value: 2.74%); format: functional
[25] = biological target: Cellular tumor antigen p53 (Homo sapiens) (UniProt P04637); test: Activation of p53 in human HCT116 cells assessed as upregulation of p53 expression after 48 hrs by Western blot analysis; format: cell-based

With `CC(=O)N[C@H]1[C@H](O[C@H]2CC[C@]3(C)[C@H]4CC=C5[C@@H]6CC(C)(C)CC[C@]6(C(=O)OCc6cn(-c7cccc(C(C)=O)c7)nn6)CC[C@@]5(C)[C@]4(C)CC[C@H]3C2(C)C)O[C@H](CO[C@@H]2OC[C@H](O)[C@H](O)[C@@H]2O)[C@@H](O)[C@@H]1O` the IC50 (HepG2) was 6.5 µM, the viability at 0.31 µM (HCT-116 [1]) was 78.9% and the IC50 [2] was 6.05 µM. The Activity (HCT-116 [3]) was 89.03%, the Activity (HCT-116 [4]) was 71.8% and the Activity (HCT-116 [5]) was “Dose-dependent effect”. The Activity (HCT-116 [6]) was 77.36%, the Activity (HCT-116 [7]) was “inactive” and the Activity (HCT-116 [8]) was “Active”. For the same molecule, the Activity (HCT-116 [9]) was 10.97%, the Activity [10] was “Active” and the viability at 1.25 µM (HCT-116 [11]) was 65.1%. For the same molecule, the Activity (HCT-116 [12]) was “Dose-dependent effect”, the Activity (HCT-116 [13]) was “Dose-dependent effect” and the Activity (HCT-116 [14]) was 20.33%. For the same molecule, the Activity (HCT-116 [15]) was 5.94%, the Activity (HCT-116 [16]) was 5.35% and the Activity (Mus musculus [17]) was “Non-Toxic”. For the same molecule, the IC50 (MGC-803) was 7.35 µM, the Activity (Mus musculus [18]) was “Non-Toxic” and the Activity (HCT-116 [19]) was “inactive”. For the same molecule, the Activity (PC-3) was “inactive”, the Activity (Mus musculus [20]) was “Non-Toxic” and the Activity (HCT-116 [21]) was “Active”. It also gave an Activity (HCT-116 [22]) of 22.64%, an Activity (HCT-116 [23]) of 26.18% and an Activity (HCT-116 [24]) of 29.71%. The Activity [25] was “Dose-dependent effect”.
